Reference: US8759366B2, “Aminopyrimidines as SYK inhibitors” (Merck Sharp & Dohme Corp., priority 2009, dated 2014)
pIC50: −log10 of the molar value.

These compounds were tested against rhSYK (Homo sapiens (Human), UniProt P43405). Conditions: read-out: rhSYK activity.

| SMILES | pIC50 |
| --- | --- |
| Cc1cc(Nc2nccc(C(F)(F)F)n2)cc(-c2cnc(C3CCC3)s2)c1 [13-1] | 6.00 to 7.00 |
| COC(=O)NS(=O)(=O)N1CCC(O)(c2ncc(-c3cc(C)cc(Nc4nccc(OC)n4)c3)s2)CC1 [54(1), Methyl {[4-hydroxy-4-(5-{3-[(4-methoxypyrimidin-2-yl)amino]-5-methylphenyl}-1,3-thiazol-2-yl)piperidin-1-yl]sulfonyl}carbamate] | > 7.00 |
| COc1ccnc(Nc2cc(C)cc(-c3cnc(C4(Cl)CCN(S(N)(=O)=O)CC4)s3)c2)n1 [54(2), 4-Chloro-4-(5-{3-[(4-methoxypyrimidin-2-yl)amino]-5-methylphenyl}-1,3-thiazol-2-yl)-piperidine-1-sulfonamide] | > 7.00 |
| CC(O)(CO)c1ncc(-c2cccc(Nc3nccc(C(F)(F)F)n3)c2)s1 (centres unmarked) [Ex 5-1] | > 7.00 |
| Cc1cc(Nc2nccc(C(F)(F)F)n2)cc(-c2cnc(C(C)(O)C(C)(C)O)s2)c1 (centres unmarked) [Ex 5-4] | > 7.00 |
| Cc1cc(Nc2ncc(Cl)c(C)n2)cc(-c2cnc(C(C)(O)CO)s2)c1 (centres unmarked) [Ex 5-14] | > 7.00 |
| COc1nc(Nc2cc(C)cc(-c3cnc(C(C)(O)CO)s3)c2)ncc1Cl (centres unmarked) [Ex 5-19] | > 7.00 |
| Cc1cc(Nc2ncc(Cl)cn2)cc(-c2cnc(C(O)(CO)CO)s2)c1 [Ex 5-20] | 6.00 to 7.00 |
| OC1(c2ncc(-c3cc(Nc4nccc(C(F)(F)F)n4)ccc3F)s2)CCC1 [Example 1, 1-[5-(2-fluoro-5-{[4-(trifluoromethyl)pyrimidin-2-yl]amino}phenyl)-1,3-thiazol-2-yl]cyclobutanol] | 6.00 to 7.00 |
| OC1(c2ncc(-c3cc(Nc4nccc(C(F)(F)F)n4)cc(C(F)(F)F)c3)s2)CCC1 [Example 2, 1-{5-[3-(trifluoromethyl)-5-{[4-(trifluoromethyl)pyrimidin-2-yl]amino}phenyl]-1,3-thiazol-2-yl}cyclobutanol] | 6.00 to 7.00 |
| OC1(c2ncc(-c3cc(Cl)cc(Nc4nccc(C(F)(F)F)n4)c3)s2)CCC1 [Example 3, 1-[5-(3-chloro-5-{[4-(trifluoromethyl)pyrimidin-2-yl]amino}phenyl)-1,3-thiazol-2-yl]cyclobutanol] | 6.00 to 7.00 |
| Cc1cc(Nc2nccc(C(F)(F)F)n2)cc(-c2cnc(C(C)(C)O)s2)c1 [Example 4, 2-[5-(3-methyl-5-{[4-(trifluoromethyl)pyrimidin-2-yl]amino}phenyl)-1,3-thiazol-2-yl]propan-2-ol] | > 7.00 |
| OC(c1ncc(-c2cccc(Nc3nccc(C(F)(F)F)n3)c2)s1)(C(F)(F)F)C(F)(F)F [Example 4A-3] | > 7.00 |
| CC(C)(O)c1ncc(-c2cc(Br)cc(Nc3nccc(C(F)(F)F)n3)c2)s1 [Example 4A-4, 2-[5-(3-bromo-5-{[4-(trifluoromethyl)pyrimidin-2-yl]amino}phenyl)-1,3-thiazol-2-yl]propan-2-ol] | > 7.00 |
| OC(c1ncc(-c2cccc(Nc3nccc(C(F)(F)F)n3)c2)s1)C1CC1 (centres unmarked) [Example 4A-5, cyclopropyl[5-(3-{[4-(trifluoromethyl)pyrimidin-2-yl]amino}phenyl)-1,3-thiazol-2-yl]methanol] | > 7.00 |
| Cn1ccc(C(C)(O)c2ncc(-c3cccc(Nc4nccc(C(F)(F)F)n4)c3)s2)c1 (centres unmarked) [Example 4A-16] | > 7.00 |
| Cc1cc(Nc2nccc(C(F)(F)F)n2)cc(-c2cnc(C(O)CCc3c[nH]cn3)s2)c1 (centres unmarked) [Example 4A-40, 3-(1H-imidazol-4-yl)-1-[5-(3-methyl-5-{[4-(trifluoromethyl)pyrimidin-2-yl]amino}phenyl)-1,3-thiazol-2-yl]propan-1-ol] | > 7.00 |
| CSc1ccc(C(C)(O)c2ncc(-c3cc(C)cc(Nc4nccc(C(F)(F)F)n4)c3)s2)cc1 (centres unmarked) [Example 4A-57, 1-[4-(methylsulfanyl)phenyl]-1-[5-(3-methyl-5-{[4-(trifluoromethyl)pyrimidin-2-yl]amino}phenyl)-1,3-thiazol-2-yl]ethanol] | 6.00 to 7.00 |
| O=C1C[C@@H]2C[C@@](O)(c3ncc(-c4cccc(Nc5nccc(C(F)(F)F)n5)c4)s3)C[C@@H]2C1 [Example 4B-7] | 6.00 to 7.00 |
| CC1(C)CC(O)(c2ncc(-c3cccc(Nc4nccc(C(F)(F)F)n4)c3)s2)CC(C)(C)S1 [Example 4B-8] | 5.00 to 6.00 |
| OC1(c2ncc(-c3cccc(Nc4nccc(C(F)(F)F)n4)c3)s2)CC2CCC1N2 (centres unmarked) [Example 4B-10] | 6.00 to 7.00 |

| SMILES | pIC50 |
| --- | --- |
| OC1(c2ncc(-c3cccc(Nc4nccc(C(F)(F)F)n4)c3)s2)COC1 [Example 4B-11] | > 7.00 |
| Cc1cc(Nc2nccc(C(F)(F)F)n2)cc(-c2cnc(C3(O)COC3)s2)c1 [Example 4B-12] | > 7.00 |
| Cc1cc(Nc2nccc(C(F)(F)F)n2)cc(-c2cnc(C3(O)CCOCC3)s2)c1 [Example 4B-13] | > 7.00 |
| Cc1cc(Nc2nccc(C(F)(F)F)n2)cc(-c2cnc(C3(O)COC(C)(C)OC3)s2)c1 [Example 4B-14] | > 7.00 |
| Cc1cc(Nc2nccc(C(F)(F)F)n2)cc(-c2cnc(C3(O)CCC4(CC3)OCCO4)s2)c1 [Example 4B-15, 8-[5-(3-methyl-5-{[4-(trifluoromethyl)pyrimidin-2-yl]amino}phenyl)-1,3-thiazol-2-yl]-1,4-dioxaspiro[4.5]decan-8-ol] | > 7.00 |
| COc1ccnc(Nc2cc(C)cc(-c3cnc(C4(O)CCC5(CC4)OCCO5)s3)c2)n1 [Example 4B-16] | > 7.00 |
| Cc1cc(Nc2nccc(C(F)(F)F)n2)cc(-c2cnc(C3(O)CCCC4CC43)s2)c1 (centres unmarked) [Example 4B-18] | > 7.00 |
| Cc1cc(Nc2nccc(C(F)(F)F)n2)cc(-c2cnc(C3(O)C[C@H]4CC(=O)C[C@H]4C3)s2)c1 (some centres unmarked) [Example 4B-20] | > 7.00 |
| Cc1cc(Nc2nccc(C)n2)cc(-c2cnc(C3(O)CCC(C(=O)O)[C@@H]4CCCC[C@H]43)s2)c1 (some centres unmarked) [Example 4B-21] | > 7.00 |
| Cc1cc(Nc2nccc(C)n2)cc(-c2cnc(C3(O)CCC(C(=O)O)[C@H]4CCCC[C@@H]43)s2)c1 (some centres unmarked) [Example 4B-23] | > 7.00 |
| Cc1cc(Nc2nccc(C(F)(F)F)n2)cc(-c2cnc(C3(O)CCC4(CCC(=O)N4)CC3)s2)c1 (centres unmarked) [Example 4B-24] | > 7.00 |
| Cc1cc(Nc2nccc(C(F)(F)F)n2)cc(-c2cnc(C3(O)CCC4(C)C(=O)CCC4(O)C3)s2)c1 (centres unmarked) [Example 4B-26] | > 7.00 |
| Cc1cc(Nc2nccc(C(F)(F)F)n2)cc(-c2cnc(C3(O)C[C@H]4CC(CC(=O)O)C[C@H]4C3)s2)c1 (some centres unmarked) [Example 4B-27] | > 7.00 |
| Cc1cc(Nc2nccc(C)n2)cc(-c2cnc(C3(O)C4CC5CC3CC(O)(C5)C4)s2)c1 (centres unmarked) [Example 4B-29] | > 7.00 |
| Cc1cc(Nc2nccc(C)n2)cc(-c2cnc([C@]3(O)[C@H]4CC5C[C@H]3C[C@](C(=O)O)(C5)C4)s2)c1 [Example 4B-30] | > 7.00 |
| Cc1cc(Nc2nccc(C)n2)cc(-c2cnc([C@]3(O)[C@@H]4CC5C[C@@H]3C[C@](C(=O)O)(C5)C4)s2)c1 [Example 4B-31] | > 7.00 |
| Cc1cc(Nc2nccc(C)n2)cc(-c2cnc(C3(O)CC4(C(=O)O)CCC3(C)C4(C)C)s2)c1 (centres unmarked) [Example 4B-32] | > 7.00 |
| Cc1cc(Nc2nccc(C(F)(F)F)n2)cc(-c2cnc(C3(O)C4CC5C(C4C(=O)O)C53)s2)c1 (centres unmarked) [Example 4B-36] | > 7.00 |
| Cc1cc(Nc2nccc(C(F)(F)F)n2)cc(-c2cnc(C3(O)CC4(O)CCC3(C)CC4)s2)c1 (centres unmarked) [Example 4B-41] | > 7.00 |
| Cc1cc(Nc2nccc(C(F)(F)F)n2)cc(-c2cnc(C3(O)C4CC5CC3CC(O)(C5)C4)s2)c1 (centres unmarked) [Example 4B-42] | > 7.00 |
